From patent US20110046227A1, “METHODS FOR CONCOMITANT ADMINISTRATION OF […] A SECOND ACTIVE AGENT” (MUTUAL PHARMACEUTICAL COMPANY, INC., priority 2009, published 2011)
Like-named read-outs stand apart in the source and are kept apart here.

Assay: Pharmacokinetic study in healthy adults of single vs. multiple oral doses of colchicine tablets (Example 1);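 also: Single-dose and multiple-dose periods given to the same subjects, with a 14-day washout between the two periods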
Type: in vivo, human
Conditions: for Vd/F / half-life / Tmax / AUC(0-inf) / AUC(0-t) / AUC / Cmax: human, plasma, 0.6 mg; for Vd/F: Vd = CL/Ke, calculated from mean values, read-out: Vd/F, Mean (% CV)
[1] = multiple (b.i.d.) oral doses colchicine 0.6 mg for 10 days, Day 25, healthy adults N=13, plasma, median

Procedure: Subjects received a light breakfast served 60 minutes following dose administration in the morning and the evening dose was administered 90 minutes after an evening meal on Days 15 through 24 only. […] Study periods were separated by a 14-day washout. Following the single dose and the last dose of the multiple dose regimen (beginning on the mornings of Day 1 and Day 25, respectively), blood samples were collected (6 mL each) from each subject within 1 hour prior to dosing and after dose administration at study hours 0.5, 1, 1.5, 2, 3, 4, 6, 8, 10, 12, and 24 (while confined) and 36, 48, 72, and 96 (on an outpatient basis).
All subjects completed both dosing periods according to protocol.
In tables, the parameter CL/F denotes the apparent total body clearance after administration, calculated as Total Dose/Total AUC0-tau; and Vd/F denotes the apparent total volume of distribution after administration, calculated as Total Dose/(Total AUC∞×Kel).
Pharmacokinetic parameters referred to herein describe the in vivo characteristics of drug (or a metabolite or a surrogate marker for the drug) over time. These include plasma concentration (C), as well as Cmax, Cn, C24, Tmax, and AUC. “Cmax” is the measured plasma concentration of the active agent at the point of maximum, or peak, concentration. “Cmin” is the measured plasma concentration of the active agent at the point of minimum concentration. “Cn” is the measured plasma concentration of the active agent at about n hours after administration. […] The term “Tmax” refers to the time from drug administration until Cmax is reached. “AUC” is the area under the curve of a graph of the measured plasma concentration of an active agent vs. time, measured from one time point to another time point. […] Time t can be the last time point with measurable plasma concentration for an individual formulation. The AUC0-∞, AUC∞ or AUC0-inf is the calculated area under the curve of plasma concentration versus time from time 0 to time infinity.

Compound COc1cc2c(c(OC)c1O)-c1ccc(OC)c(=O)cc1[C@@H](NC(C)=O)CC2 [2-O-demethylcolchicine] has a metabolite plasma concentration (after colchicine 0.6 mg single and multiple doses, LOQ 0.2 ng/mL, 13 subjects) of under 0.2 ng/mL.

With COc1cc2c(c(OC)c1OC)-c1ccc(OC)c(=O)cc1[C@@H](NC(C)=O)CC2 [Colchicine, (−)-N-[(7S,12aS)-1,2,3,10-tetramethoxy-9-oxo-5,6,7,9-tetrahydrobenzo[a]heptalen-7-yl]-acetamide] the “attainment of steady state (trough plasma concentrations)” value (0.6 mg b.i.d., most subjects) was “by approximately the eighth day of dosing”, the elimination half-life (calculated following a single oral dose, stated not to be an accurate estimate) was “approximately 5 hours” and the secondary colchicine peak (following a single dose or upon multiple dosing, individual subject data) was “no subject experienced a secondary colchicine peak”. For the same compound, the “apparent volume of distribution” value (healthy adults, oral, single dose) was 540 L, the Vd/F (oral, colchicine 0.6 mg b.i.d. × 10 days, Day 25) was 1150 L and the Vd/F (oral, colchicine 0.6-mg single dose, Day 1, N=13) was 341 L. For the same compound, the half-life (oral, repeated dosing 0.6 mg b.i.d., read-out: terminal elimination half life (converted)) was 26.6 h, the half-life (po, multiple (b.i.d.) oral doses colchicine 0.6 mg for 10 days, Day 25, healthy adults N=13, mean, read-out: T1/2, MEAN (converted)) was 26.6 h and the Tmax (po, multiple (b.i.d.) oral doses colchicine 0.6 mg for 10 days, Day 25, healthy adults N=13, mean, read-out: Tmax, MEAN) was 1.31 h. It also gave a half-life (po, multiple (b.i.d.) oral doses colchicine 0.6 mg for 10 days, Day 25, healthy adults N=13, median, read-out: T1/2, MEDIAN (converted)) of 26.5 h, a Tmax (po, multiple (b.i.d.) oral doses colchicine 0.6 mg for 10 days, Day 25, healthy adults N=13, median, read-out: Tmax, MEDIAN) of 1 h and an AUC(0-inf) (po, multiple (b.i.d.) oral doses colchicine 0.6 mg for 10 days, Day 25, healthy adults N=13, plasma, mean, read-out: AUC0-inf, MEAN) of 54.2 ng·h/mL. The AUC(0-t) (po, multiple (b.i.d.) oral doses colchicine 0.6 mg for 10 days, Day 25, healthy adults N=13, plasma, mean, read-out: AUC0-t, MEAN) was 43.6 ng·h/mL, the AUC (po, multiple (b.i.d.) oral doses colchicine 0.6 mg for 10 days, Day 25, healthy adults N=13, plasma, mean, read-out: AUC0-τ, MEAN) was 20.4 ng·h/mL and the Cmax (po, multiple (b.i.d.) oral doses colchicine 0.6 mg for 10 days, Day 25, healthy adults N=13, plasma, mean, read-out: Cmax, MEAN) was 3.55 ng/mL. It also gave an AUC(0-inf) (po, multiple (b.i.d.) oral doses colchicine 0.6 mg for 10 days, Day 25, healthy adults N=13, plasma, median, read-out: AUC0-inf, MEDIAN) of 54.1 ng·h/mL, an AUC(0-t) (po, multiple (b.i.d.) oral doses colchicine 0.6 mg for 10 days, Day 25, healthy adults N=13, plasma, median, read-out: AUC0-t, MEDIAN) of 41.9 ng·h/mL and an AUC (po, multiple (b.i.d.) oral doses colchicine 0.6 mg for 10 days, Day 25, healthy adults N=13, plasma, median, read-out: AUC0-τ, MEDIAN) of 20.4 ng·h/mL. It also gave a Cmax (po, multiple (b.i.d.) oral doses colchicine 0.6 mg for 10 days, Day 25, healthy adults N=13, plasma, median, read-out: Cmax, MEDIAN) of 3.73 ng/mL, a half-life (po, single oral dose colchicine 0.6 mg, healthy adults N=13, mean, read-out: T1/2, MEAN (converted)) of 4.95 h and a half-life (po, single oral dose colchicine 0.6 mg, healthy adults N=13, median, read-out: T1/2, MEDIAN (converted)) of 3.48 h. The Tmax (po, single oral dose colchicine 0.6 mg, healthy adults N=13, median, read-out: Tmax, MEDIAN) was 1.5 h, the AUC(0-inf) (po, single oral dose colchicine 0.6 mg, healthy adults N=13, plasma, mean, read-out: AUC0-inf, MEAN) was 12.3 ng·h/mL and the AUC(0-t) (po, single oral dose colchicine 0.6 mg, healthy adults N=13, plasma, mean, read-out: AUC0-t, MEAN) was 10.5 ng·h/mL. For the same compound, the Cmax (po, single oral dose colchicine 0.6 mg, healthy adults N=13, plasma, mean, read-out: Cmax, MEAN) was 2.45 ng/mL, the AUC(0-inf) (po, single oral dose colchicine 0.6 mg, healthy adults N=13, plasma, median, read-out: AUC0-inf, MEDIAN) was 11.5 ng·h/mL and the AUC(0-t) (po, single oral dose colchicine 0.6 mg, healthy adults N=13, plasma, median, read-out: AUC0-t, MEDIAN) was 10.6 ng·h/mL. The Cmax (po, single oral dose colchicine 0.6 mg, healthy adults N=13, plasma, median, read-out: Cmax, MEDIAN) was 2.48 ng/mL, the “Kel, MEAN” value (multiple (b.i.d.) oral doses colchicine 0.6 mg for 10 days, Day 25, healthy adults N=13, mean) was 0.0267 h⁻¹ and the “Kel, MEDIAN” value (multiple (b.i.d.) oral doses colchicine 0.6 mg for 10 days, Day 25, healthy adults N=13, median) was 0.0261 h⁻¹. For the same compound, the “Cave, MEAN” value (multiple (b.i.d.) oral doses colchicine 0.6 mg for 10 days, Day 25, healthy adults N=13, plasma, mean) was 1.69722 ng/mL, the “Cave, MEDIAN” value [1] was 1.70192 ng/mL and the “Cmin, MEDIAN” value [1] was 0.9035 ng/mL. For the same compound, the “mean Cmin concentration” value (observed on Day 25, 0.6 mg b.i.d. steady state regimen) was 0.907 ng/mL, the “plasma concentrations quantifiable after a single dose” value (single dose 0.6 mg, 24 hours post-dose) was “no longer quantifiable 24 hours post-dose in all but 1 subject” and the “Kel, MEAN” value (single oral dose colchicine 0.6 mg, healthy adults N=13, mean) was 0.1829 h⁻¹. The “Kel, MEDIAN” value (single oral dose colchicine 0.6 mg, healthy adults N=13, median) was 0.1992 h⁻¹ and the “Cmin prior to the morning dose higher than Cmin prior to the evening dose” value (steady state, Day 23 and Day 24) was “approximately 12%”.
